This is an account of results in PubChem BioAssay (NCI).

Test systems include OVCAR-5 ovarian; M14 melanoma; UACC-257 melanoma; MCF7 breast; MDA-MB-231 breast; CCRF-CEM leukemia; IGROV1 ovarian; A498 renal; HS 578T breast; NCI-H23 lung.
Common to all, as to assay: growth of human tumour cells (NCI), 48 h

The structures appear in SMILES notation.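 Each compound was tested at five concentrations against cells in 96-well plates for 48 hours. Abbreviation: GI50, concentration required for 50% inhibition of growth. TGI: concentration producing complete growth inhibition.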 Bounds are passed on as bounds.

In the case of `COc1cc(-n2cc(-c3cc(O)c(C/C=C(\C)CCC=C(C)C)c(O)c3)nn2)cc2c1O[C@]1(C)CC[C@@H](O)C(C)(C)[C@H]1C2`, the GI50 in the assay with OVCAR-5 ovarian was 2.35 µM; with M14 melanoma it was 0.787 µM; in the assay with UACC-257 melanoma, 5.09 µM; in the assay with MCF7 breast, 0.338 µM; in the assay on MDA-MB-231 breast it was 0.275 µM; with CCRF-CEM leukemia, 0.194 µM. Moreover, the GI50 with IGROV1 ovarian is 1.85 µM; with A498 renal it was 0.298 µM; with HS 578T breast, 0.0452 µM; in the assay on NCI-H23 lung, 3.26 µM. Besides, the TGI in the assay with OVCAR-5 ovarian is 21.5 µM; with M14 melanoma it was 31 µM; in the assay on UACC-257 melanoma it was 48.4 µM; in the assay on MCF7 breast, 19.2 µM; with MDA-MB-231 breast, 3.24 µM; in the assay on CCRF-CEM leukemia it was > 43.3 µM. Moreover, the TGI with IGROV1 ovarian is 28.5 µM; in the assay on A498 renal, 32.8 µM; with HS 578T breast, 3.41 µM; in the assay on NCI-H23 lung it was 31.3 µM.

For `COc1ccc(C(=O)c2ccc(-n3cc(/C=C/[N+](=O)[O-])c4ccccc43)cc2)cc1`, the TGI in the assay with OVCAR-5 ovarian is > 100 µM; in the assay on M14 melanoma, > 74.5 µM; in the assay on UACC-257 melanoma, 31.3 µM; in the assay with MCF7 breast, > 34.2 µM; in the assay with MDA-MB-231 breast, 43.9 µM; in the assay on CCRF-CEM leukemia, > 20.2 µM. The TGI with IGROV1 ovarian worked out at 26.2 µM; with A498 renal, 44.9 µM; in the assay with HS 578T breast, 19.9 µM; in the assay on NCI-H23 lung, 52.4 µM.

Turning to `C/C(=N\Nc1ccccc1)C(CN(C)C)C(c1ccccc1)c1c(O)c2ccccc2oc1=O` (stereo not given), the TGI with OVCAR-5 ovarian, in the assay with M14 melanoma, with UACC-257 melanoma, in the assay with MCF7 breast, in the assay on MDA-MB-231 breast and with CCRF-CEM leukemia was > 100 µM each time. Also, the TGI with IGROV1 ovarian, in the assay on A498 renal, with HS 578T breast and in the assay with NCI-H23 lung was > 100 µM each time.

On to `Cc1ccc(/C=C2\CN(C)CC3C2=NC(=S)NC3c2ccc(C)cc2)cc1` (stereo not given), for which the TGI in the assay with OVCAR-5 ovarian was > 100 µM; in the assay on M14 melanoma it was > 100 µM; in the assay on UACC-257 melanoma, > 100 µM; in the assay on MCF7 breast, > 100 µM; in the assay with MDA-MB-231 breast it was > 100 µM; in the assay on CCRF-CEM leukemia, 54.5 µM. In addition, the TGI is > 80.1 µM in the assay on IGROV1 ovarian, > 100 µM in the assay with A498 renal, > 100 µM in the assay with HS 578T breast and > 100 µM in the assay on NCI-H23 lung.

As to `CCN(CC)CCN(C)CCc1ccc(Br)cc1`, the TGI in the assay with OVCAR-5 ovarian was > 100 µM; in the assay with M14 melanoma, 33.1 µM; in the assay with UACC-257 melanoma, > 100 µM; in the assay on MCF7 breast it was > 100 µM; in the assay with MDA-MB-231 breast, > 100 µM; in the assay with CCRF-CEM leukemia it was > 100 µM. The TGI with IGROV1 ovarian is > 100 µM; with A498 renal, 60.4 µM; in the assay on HS 578T breast, > 100 µM; in the assay with NCI-H23 lung, > 100 µM.

Consider `CC1=C2NCN(C)N=C2C(C#N)(C#N)C1(C#N)C#N`, for which the TGI was > 91.7 µM in the assay on OVCAR-5 ovarian; > 66.4 µM in the assay on M14 melanoma; 33.9 µM with UACC-257 melanoma; > 70.7 µM with MCF7 breast; 36.2 µM in the assay on MDA-MB-231 breast; 7.86 µM in the assay with CCRF-CEM leukemia. In addition, the TGI was > 63 µM in the assay on IGROV1 ovarian, > 100 µM in the assay on A498 renal, > 96.3 µM in the assay on HS 578T breast and 21.4 µM with NCI-H23 lung.

In the case of `O=P(O)(O)CN1CCNCCN(CP(=O)(O)O)CCNCC1`, the TGI in the assay with OVCAR-5 ovarian, in the assay with M14 melanoma, in the assay with UACC-257 melanoma, with MCF7 breast, in the assay on MDA-MB-231 breast and in the assay on CCRF-CEM leukemia was > 100 µM each time. The TGI in the assay with IGROV1 ovarian was > 51.2 µM; with A498 renal, > 100 µM; with HS 578T breast, > 100 µM; in the assay with NCI-H23 lung it was > 100 µM.

For `CC(C)=CCC[C@@H](C)c1c2[nH]c3ccccc3sc-2c(C)c(=O)c1=O`, the TGI is > 75 µM in the assay on OVCAR-5 ovarian; 48.5 µM in the assay with M14 melanoma; > 75 µM in the assay on UACC-257 melanoma; > 75 µM in the assay with MCF7 breast; > 75 µM in the assay with MDA-MB-231 breast; > 42.4 µM with CCRF-CEM leukemia. For the same compound, the TGI is 26.3 µM with IGROV1 ovarian, 35.5 µM with A498 renal, > 48.9 µM in the assay with HS 578T breast and 41.9 µM with NCI-H23 lung.

Regarding `COC(=O)c1ccc(/C=C2\CCc3ccccc3C2=O)cc1`, the TGI in the assay with OVCAR-5 ovarian, in the assay with M14 melanoma, with UACC-257 melanoma, in the assay with MCF7 breast, with MDA-MB-231 breast and in the assay with CCRF-CEM leukemia was > 100 µM in each case. Moreover, the TGI in the assay with IGROV1 ovarian, in the assay on A498 renal, in the assay with HS 578T breast and in the assay with NCI-H23 lung was > 100 µM in each case.

On to `CCOC(=O)c1nc2ccccc2nc1NCc1ccc(Cl)cc1Cl`, for which the TGI in the assay with OVCAR-5 ovarian, with M14 melanoma, with UACC-257 melanoma, in the assay on MCF7 breast, in the assay with MDA-MB-231 breast and in the assay with CCRF-CEM leukemia was > 100 µM throughout. In addition, the TGI with IGROV1 ovarian, in the assay on A498 renal, with HS 578T breast and in the assay on NCI-H23 lung was > 100 µM throughout.

Take `CC(=O)c1ccc(NC(=O)CSc2nc(C)nc3c2sc(=S)n3-c2ccccc2)cc1`: the TGI is > 3.16 µM in the assay with OVCAR-5 ovarian; > 3.16 µM with M14 melanoma; > 3.16 µM in the assay with UACC-257 melanoma; > 10 µM in the assay with MCF7 breast; > 3.16 µM in the assay with MDA-MB-231 breast; > 3.16 µM in the assay on CCRF-CEM leukemia. The TGI with IGROV1 ovarian, in the assay on A498 renal, with HS 578T breast and in the assay with NCI-H23 lung was > 3.16 µM throughout.

For the compound `CCCNC(=O)CCC(C)[C@H]1CCC2C3C(C[C@H](OC(C)=O)[C@@]21C)[C@@]1(C)CCC2(C[C@H]1C[C@H]3OC(C)=O)OOC1(CCCCC1)OO2` (stereo not given in full), the TGI in the assay on OVCAR-5 ovarian was 25.8 µM; in the assay with M14 melanoma it was > 100 µM; in the assay with UACC-257 melanoma it was > 100 µM; with MCF7 breast it was > 56.1 µM; in the assay with MDA-MB-231 breast, 5.31 µM; in the assay on CCRF-CEM leukemia, 4.95 µM. Besides, the TGI in the assay with IGROV1 ovarian is 2.22 µM; in the assay with A498 renal, 50.1 µM; in the assay on HS 578T breast, > 53 µM; with NCI-H23 lung, 3.54 µM.

For `CCOC(=O)/C(C#N)=C/N(CC)/N=C/c1ccccc1`, the TGI in the assay with OVCAR-5 ovarian, in the assay with M14 melanoma, in the assay on UACC-257 melanoma, in the assay with MCF7 breast, with MDA-MB-231 breast and in the assay with CCRF-CEM leukemia was > 100 µM in each case. Besides, the TGI in the assay with IGROV1 ovarian, in the assay on A498 renal, in the assay with HS 578T breast and with NCI-H23 lung was > 100 µM in each case.

In the case of `O=C1CC2(CCNCC2)C(=O)N1N1CCOCC1`, the TGI in the assay with OVCAR-5 ovarian, in the assay on M14 melanoma, in the assay on UACC-257 melanoma, in the assay with MCF7 breast, in the assay with MDA-MB-231 breast and in the assay on CCRF-CEM leukemia was > 100 µM each time. Also, the TGI in the assay on IGROV1 ovarian, in the assay on A498 renal, in the assay on HS 578T breast and in the assay on NCI-H23 lung was > 100 µM in each case.

With `O=C1C=C(N2CCN(c3ccccn3)CC2)C(=O)c2c(O)ccc(O)c21`, the TGI with OVCAR-5 ovarian was > 46.4 µM; in the assay on M14 melanoma it was > 48.2 µM; in the assay on UACC-257 melanoma it was 23.4 µM; in the assay on MCF7 breast, 18.6 µM; in the assay on MDA-MB-231 breast it was 44.9 µM; in the assay with CCRF-CEM leukemia, > 36.8 µM. In addition, the TGI in the assay with IGROV1 ovarian is 43.5 µM; in the assay on A498 renal it was 52.2 µM; in the assay with HS 578T breast, > 70.3 µM; with NCI-H23 lung it was 13 µM.

On to `O=C(c1ccco1)C1CC(c2ccc3ccccc3c2O)=NN1c1ccc([N+](=O)[O-])cc1[N+](=O)[O-]` (stereo not given), for which the TGI was > 100 µM with OVCAR-5 ovarian; > 100 µM in the assay with M14 melanoma; > 100 µM in the assay with UACC-257 melanoma; > 100 µM in the assay with MCF7 breast; 68.7 µM with MDA-MB-231 breast; 10.6 µM in the assay on CCRF-CEM leukemia. The TGI with IGROV1 ovarian was > 100 µM; in the assay on A498 renal, > 100 µM; in the assay on HS 578T breast, 66.6 µM; in the assay on NCI-H23 lung, > 100 µM.

With `C=C[C@@](C)(/C=C/c1ccc(O)cc1)CCC=C(C)C`, the TGI amounted to 33.5 µM in the assay with OVCAR-5 ovarian; 35.3 µM in the assay on M14 melanoma; 31.9 µM in the assay with UACC-257 melanoma; 35.2 µM in the assay with MCF7 breast; 35.8 µM in the assay on MDA-MB-231 breast; 31 µM in the assay with CCRF-CEM leukemia. Also, the TGI in the assay on IGROV1 ovarian stood at 30.5 µM; with A498 renal, 35.6 µM; with HS 578T breast, 46.9 µM; in the assay on NCI-H23 lung, 30.4 µM.

Take `O=S1(=O)CCN(c2ccccc2CC(c2c[nH]c3ccccc23)c2c[nH]c3ccccc23)CC1`: the TGI is 54.9 µM in the assay on OVCAR-5 ovarian; 20.5 µM in the assay on M14 melanoma; 18 µM with UACC-257 melanoma; > 100 µM with MCF7 breast; 25.1 µM with MDA-MB-231 breast; 11.1 µM in the assay with CCRF-CEM leukemia. The TGI worked out at 33.4 µM with IGROV1 ovarian, 39.9 µM in the assay with A498 renal, 42.7 µM in the assay on HS 578T breast and 22.6 µM in the assay on NCI-H23 lung.
